Results from PubChem BioAssay (NCI).
Several values for one entry are separate records, joined by “and”; a condition that tells them apart may be missing. Equal entries are not always repeated.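 How tested: cells in 96-well plates exposed to compound for 48 hours at five concentrations. TGI: concentration producing complete growth inhibition.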 Where a SMILES comes first, the peptide text is derived from it. The star is where a group is joined. Cbz = O=C(OCc1ccccc1)*

What was measured:
Test in all cases: growth of human tumour cells (NCI), 48 h
UACC-257 melanoma = system: UACC-257 melanoma
PC-3 prostate = system: PC-3 prostate
HOP-92 NSCLC = system: HOP-92 NSCLC
NCI-H23 lung = system: NCI-H23 lung
786-0 renal = system: 786-0 renal

Structure (SMILES): CCCc1c2c3ccccc3nc-2nc2ccccn12
- TGI (UACC-257 melanoma): > 100 µM
- TGI (PC-3 prostate): > 100 µM
- TGI (HOP-92 NSCLC): > 100 µM
- TGI (NCI-H23 lung): 88.6 µM
- TGI (786-0 renal): > 100 µM

Structure (SMILES): S=C(Nc1ccc(Br)cn1)NC12CC3CC(CC(C3)C1)C2
- TGI (UACC-257 melanoma): > 100 µM
- TGI (PC-3 prostate): 43.2 µM
- TGI (HOP-92 NSCLC): 26.4 µM
- TGI (NCI-H23 lung): 38.9 µM
- TGI (786-0 renal): 21.3 µM

Structure (SMILES): N#Cc1c(-c2ccc(Cl)cc2)c(C#N)c(=O)n(NS(=O)(=O)c2ccccc2)c1-c1ccccc1
- TGI (UACC-257 melanoma): > 25 µM
- TGI (PC-3 prostate): > 25 µM
- TGI (HOP-92 NSCLC): > 25 µM
- TGI (786-0 renal): > 25 µM

Structure (SMILES): CO[C@H]1O[C@@H]2CO[C@@H](c3ccccc3)O[C@H]2C[C@]12CCC/C=C\CO2
- TGI (UACC-257 melanoma): > 75 µM
- TGI (PC-3 prostate): 50.8 µM
- TGI (HOP-92 NSCLC): 28.4 µM
- TGI (NCI-H23 lung): 68.1 µM
- TGI (786-0 renal): 26.2 µM

Structure (SMILES): Cc1cc(=Nc2ccc3c(c2)c(N)cc(C)[n+]3C)nc(N)n1C
- TGI (UACC-257 melanoma): > 100 µM
- TGI (PC-3 prostate): > 100 µM
- TGI (HOP-92 NSCLC): > 100 µM
- TGI (NCI-H23 lung): > 100 µM
- TGI (786-0 renal): > 100 µM

Structure (SMILES): NNC(=O)c1n[nH]nc1SSc1n[nH]nc1C(=O)NN
- TGI (UACC-257 melanoma): > 100 µM
- TGI (PC-3 prostate): > 100 µM
- TGI (HOP-92 NSCLC): > 100 µM
- TGI (NCI-H23 lung): > 100 µM
- TGI (786-0 renal): > 100 µM

Structure (SMILES): CC(Cc1ccc(O)c(O)c1)C(C)Cc1ccc(O)c(O)c1 (centres undefined)
- TGI (UACC-257 melanoma): 37.9 µM
- TGI (PC-3 prostate): > 79.6 µM
- TGI (HOP-92 NSCLC): 12.2 µM
- TGI (NCI-H23 lung): 46.6 µM
- TGI (786-0 renal): 32.8 µM

Structure (SMILES): Cc1cc2c(-c3ccccc3)cc(=O)[nH]c2cc1N
- TGI (UACC-257 melanoma): > 100 µM
- TGI (PC-3 prostate): > 100 µM
- TGI (HOP-92 NSCLC): > 100 µM
- TGI (NCI-H23 lung): > 100 µM
- TGI (786-0 renal): > 100 µM

Structure (SMILES): O=[N+]([O-])C1(C2([N+](=O)[O-])CCCC2)CCCC1
- TGI (UACC-257 melanoma): > 100 µM
- TGI (PC-3 prostate): > 100 µM
- TGI (NCI-H23 lung): > 100 µM
- TGI (786-0 renal): > 100 µM

Structure (SMILES): CCOC(=O)c1nc2cc(C(F)(F)F)ccc2nc1Nc1ccc(Cl)c(Cl)c1
- TGI (UACC-257 melanoma): > 100 µM
- TGI (PC-3 prostate): > 100 µM
- TGI (HOP-92 NSCLC): 94.1 µM
- TGI (NCI-H23 lung): > 100 µM
- TGI (786-0 renal): > 100 µM

Structure (SMILES): Cc1cccc2c1C(=O)C(C1OC(=O)c3ccccc31)C2 (centres undefined)
- TGI (UACC-257 melanoma): > 100 µM
- TGI (PC-3 prostate): > 100 µM
- TGI (HOP-92 NSCLC): > 100 µM
- TGI (NCI-H23 lung): > 100 µM
- TGI (786-0 renal): > 100 µM

Structure (SMILES): Cn1c(=O)n(CC(Br)CBr)c(=O)n(CC(Br)CBr)c1=O (centres undefined)
- TGI (UACC-257 melanoma): > 100 µM
- TGI (PC-3 prostate): > 100 µM
- TGI (HOP-92 NSCLC): > 100 µM
- TGI (NCI-H23 lung): > 100 µM
- TGI (786-0 renal): > 100 µM

Structure (SMILES): C#CCOC(=O)c1ccccc1OC(C)=O
- TGI (UACC-257 melanoma): > 100 µM
- TGI (PC-3 prostate): > 100 µM
- TGI (HOP-92 NSCLC): > 100 µM
- TGI (NCI-H23 lung): > 100 µM
- TGI (786-0 renal): > 100 µM

Structure (SMILES): C[C@@H]1C(O)CC[C@H](C)C12CC=CC2=O (some centres undefined)
- TGI (UACC-257 melanoma): > 100 µM
- TGI (PC-3 prostate): > 100 µM
- TGI (HOP-92 NSCLC): > 100 µM
- TGI (NCI-H23 lung): > 100 µM
- TGI (786-0 renal): > 100 µM

Structure (SMILES): CCC1(C)N=C(C(N)=O)c2ncn(N=C(C)C)c2N1 (centres undefined)
- TGI (UACC-257 melanoma): > 100 µM
- TGI (PC-3 prostate): > 100 µM
- TGI (HOP-92 NSCLC): > 100 µM
- TGI (NCI-H23 lung): > 100 µM
- TGI (786-0 renal): > 100 µM

Structure (SMILES): CC12ON=C(c3ccccc3)N1C=CN1C(c3ccccc3)=NOC12 (centres undefined)
- TGI (UACC-257 melanoma): > 100 µM
- TGI (PC-3 prostate): > 100 µM
- TGI (NCI-H23 lung): > 100 µM
- TGI (786-0 renal): > 100 µM

Structure (SMILES): CSc1c(C#N)c2n(c3ccccc3[n+]2C)c2ncccc12
- TGI (PC-3 prostate): 45.3 µM
- TGI (NCI-H23 lung): 51.6 µM
- TGI (786-0 renal): 50.3 µM

Structure (SMILES): CCOC(=O)CCC(NC(=O)OCc1ccccc1)C(=O)NC(CCC(=O)OCC)C(=O)NC(CCC(=O)OCC)C(=O)NC(CCC(=O)OCC)C(=O)NC(CCC(=O)OCC)C(=O)OCC (centres undefined)
- TGI (UACC-257 melanoma): > 100 µM
- TGI (PC-3 prostate): > 100 µM
- TGI (NCI-H23 lung): > 100 µM
- TGI (786-0 renal): > 100 µM

Structure (SMILES): CC1(C)CC(=O)c2c(nc3ccc4ccccc4c3c2-c2ccc(NC(=O)CCCCC(=O)Nc3ccc(-c4c5c(nc6ccc7ccccc7c46)CC(C)(C)CC5=O)cc3)cc2)C1
- TGI (UACC-257 melanoma): > 100 µM
- TGI (PC-3 prostate): > 100 µM
- TGI (HOP-92 NSCLC): > 100 µM
- TGI (NCI-H23 lung): > 100 µM
- TGI (786-0 renal): > 100 µM

Structure (SMILES): S=C1C=C(c2ccccc2)Sc2ccccc2N1
- TGI (UACC-257 melanoma): > 100 µM
- TGI (PC-3 prostate): > 100 µM
- TGI (NCI-H23 lung): > 100 µM
- TGI (786-0 renal): > 100 µM

Structure (SMILES): CN1C[C@@H]2CCCN2P1Oc1cccc2cccnc12 (some centres undefined)
- TGI (UACC-257 melanoma): > 100 µM
- TGI (PC-3 prostate): > 100 µM
- TGI (HOP-92 NSCLC): > 100 µM
- TGI (NCI-H23 lung): 57.7 µM
- TGI (786-0 renal): > 100 µM

Structure (SMILES): COCN1C(=O)[C@@H]2CCCN2C(=O)c2cc([N+](=O)[O-])ccc21
- TGI (UACC-257 melanoma): > 100 µM
- TGI (PC-3 prostate): > 100 µM
- TGI (NCI-H23 lung): > 100 µM
- TGI (786-0 renal): > 100 µM

Structure (SMILES): CC(C)(C)/C(O)=C\c1nc2cc(C(F)(F)F)ccc2[nH]c1=O
- TGI (UACC-257 melanoma): > 100 µM
- TGI (PC-3 prostate): > 100 µM
- TGI (HOP-92 NSCLC): > 100 µM
- TGI (NCI-H23 lung): > 100 µM
- TGI (786-0 renal): > 100 µM

Structure (SMILES): O=C(/C=C/c1ccc(Cl)c(Cl)c1)Oc1ccc(/C=C2\CCCCC2=O)cc1
- TGI (UACC-257 melanoma): > 100 µM
- TGI (PC-3 prostate): > 100 µM
- TGI (HOP-92 NSCLC): > 100 µM
- TGI (NCI-H23 lung): > 100 µM
- TGI (786-0 renal): > 100 µM

Structure (SMILES): CC(=O)c1cn(-c2ccc(Cl)cc2)c(=O)c2c(N)n[nH]c12
- TGI (UACC-257 melanoma): > 100 µM
- TGI (PC-3 prostate): > 100 µM
- TGI (NCI-H23 lung): > 100 µM
- TGI (786-0 renal): > 100 µM

Structure (SMILES): COC/C=C\[C@@]1(O)CCCC[C@@H]1CC(OC)OC
- TGI (UACC-257 melanoma): > 100 µM
- TGI (PC-3 prostate): > 100 µM
- TGI (HOP-92 NSCLC): > 100 µM
- TGI (NCI-H23 lung): 98.7 µM
- TGI (786-0 renal): > 100 µM

Structure (SMILES): Cc1ccc(C2=Nc3c(N)nc(N)nc3NC(c3ccccc3)C2)cc1 (centres undefined)
- TGI (UACC-257 melanoma): 24.6 µM and 32.4 µM
- TGI (PC-3 prostate): 22.9 µM and 24 µM
- TGI (HOP-92 NSCLC): 24.3 µM and 24.9 µM
- TGI (NCI-H23 lung): 24.1 µM and 25.6 µM
- TGI (786-0 renal): 24.3 µM and 31.1 µM

Structure (SMILES): CSCCCCCCCCCCOc1ccc(C=C2C(=C(C#N)C#N)c3ccccc3C2=C(C#N)C#N)cc1
- TGI (UACC-257 melanoma): 35.4 µM
- TGI (PC-3 prostate): 31.4 µM
- TGI (HOP-92 NSCLC): 26.9 µM
- TGI (NCI-H23 lung): 48.9 µM
- TGI (786-0 renal): 37.4 µM

Structure (SMILES): CCOC(=O)C(C)NC(=O)C(C)NC(=O)C(C)NC(=O)C(C)NC(=O)C(C)NC(=O)C(C)NC(=O)C(C)NC(=O)OCc1ccccc1 (centres undefined) (Cbz-AAAAAAA-OEt; configuration not given here)
- TGI (PC-3 prostate): > 100 µM
- TGI (HOP-92 NSCLC): > 100 µM
- TGI (NCI-H23 lung): > 100 µM
- TGI (786-0 renal): > 100 µM

Structure (SMILES): CCCCCCCCCN1CCC(=O)C(C(=O)OC)C1 (centres undefined)
- TGI (UACC-257 melanoma): 24.7 µM
- TGI (HOP-92 NSCLC): 33.9 µM
- TGI (NCI-H23 lung): 8.59 µM
- TGI (786-0 renal): 30.6 µM

Structure (SMILES): Fc1ccc(C(OCCN2CCC3CCC(C2)N3Cc2cc3ccccc3[nH]2)c2ccc(F)cc2)cc1 (centres undefined)
- TGI (UACC-257 melanoma): 3.53 µM
- TGI (PC-3 prostate): 3.25 µM
- TGI (HOP-92 NSCLC): 3.62 µM
- TGI (NCI-H23 lung): 3.05 µM
- TGI (786-0 renal): 3.08 µM

Structure (SMILES): Cc1nc2c(-c3ccccc3)[nH]c(C)c2c(=O)o1
- TGI (UACC-257 melanoma): > 100 µM
- TGI (PC-3 prostate): > 100 µM
- TGI (HOP-92 NSCLC): > 100 µM
- TGI (NCI-H23 lung): > 100 µM
- TGI (786-0 renal): > 100 µM

Structure (SMILES): CCOC(=O)c1c(SCCO)n(-c2ccccc2)c(=S)n(-c2ccccc2)c1=O
- TGI (UACC-257 melanoma): > 100 µM
- TGI (PC-3 prostate): > 100 µM
- TGI (HOP-92 NSCLC): > 100 µM
- TGI (NCI-H23 lung): > 100 µM
- TGI (786-0 renal): > 100 µM

Structure (SMILES): COc1cc2c(c(OC)c1OC)C(=O)CC2N (centres undefined)
- TGI (UACC-257 melanoma): > 100 µM
- TGI (PC-3 prostate): > 100 µM
- TGI (HOP-92 NSCLC): > 100 µM
- TGI (NCI-H23 lung): > 100 µM
- TGI (786-0 renal): > 100 µM
